Measurements from US20250353853A1, “FLAVIVIRUS INHIBITORS” (IRBM S.P.A., priority 2022, published 2025).
Read-outs that look alike come from different tables or passages of the source.

Assays:
[1] = target: West Nile Virus (WNV) NS2B-NS3 protease (West Nile virus (WNV), UniProt P06935); assay: WNV Protease Inhibition Assay; assay type: biochemical
From the text: WNV Protease Inhibition Assay

[2] = tested on: ZIKV replicon in Vero cells; assay: ZIKV Replication Inhibition Assay (replicon, NanoLuc); conditions: Zika virus, Vero, 72 h, read-out: Zika Replicon EC50
[3] = 2 nM protease, 10 μM pERTKR-AMC substrate, read-out: WNV Protease IC50

Sequence of West Nile Virus (WNV) NS2B-NS3 protease (P06935 1502-1679 limits assumed): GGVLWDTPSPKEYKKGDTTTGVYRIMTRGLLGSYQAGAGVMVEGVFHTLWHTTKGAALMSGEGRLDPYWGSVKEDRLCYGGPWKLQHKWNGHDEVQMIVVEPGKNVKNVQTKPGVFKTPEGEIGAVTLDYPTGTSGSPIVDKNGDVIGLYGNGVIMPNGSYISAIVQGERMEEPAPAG
Sequence of West Nile Virus (WNV) NS2B-NS3 protease (P06935 1371-1501 partner limits assumed): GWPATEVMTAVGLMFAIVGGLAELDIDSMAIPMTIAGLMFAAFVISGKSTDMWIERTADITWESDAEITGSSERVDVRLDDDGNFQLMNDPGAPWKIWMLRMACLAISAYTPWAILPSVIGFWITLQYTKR

Structure (SMILES)	IC50 [1, 3]	EC50 [2]	IC50 [1]
O=C([N-]c1c[n+](Cc2ccc(-c3cncnc3C(F)(F)F)cn2)no1)Nc1cncc(C(F)(F)F)c1 [Example 137, ((5-(trifluoromethyl)pyridin-3-yl)carbamoyl)(3-((5-(4-(trifluoromethyl)pyrimidin-5-yl)pyridin-2-yl)methyl)-1,2,3-oxadiazol-3-ium-5-yl)amide]	< 100 nM	< 100 nM	–
Cc1ncnc(C)c1-c1ccc(C[n+]2cc([N-]C(=O)Nc3ccnc(C(F)(F)F)c3)on2)nc1 [Example 176, (3-((5-(4,6-dimethylpyrimidin-5-yl)pyridin-2-yl)methyl)-1,2,3-oxadiazol-3-ium-5-yl)((2-(trifluoromethyl)pyridin-4-yl)carbamoyl)amide]	< 100 nM	100 to 1000 nM	–
Cc1ncccc1-c1ccc(C[n+]2cc([N-]C(=O)Nc3cncc(C(F)(F)F)c3)on2)nc1 [Example 141, (3-((2′-methyl-[3,3′-bipyridin]-6-yl)methyl)-1,2,3-oxadiazol-3-ium-5-yl)((5-(trifluoromethyl)pyridin-3-yl)carbamoyl)amide]	< 100 nM	100 to 1000 nM	–
Cc1cnn(C)c1-c1ccc(C[n+]2cc([N-]C(=O)Nc3cccc(C(F)(F)F)c3)on2)nc1 [Example 165, (3-((5-(1,4-dimethyl-1H-pyrazol-5-yl)pyridin-2-yl)methyl)-1,2,3-oxadiazol-3-ium-5-yl)((3-(trifluoromethyl)phenyl)carbamoyl)amide]	–	< 100 nM	100 to 1000 nM
O=C([N-]c1c[n+](Cc2ccc(-c3cncnc3)cn2)no1)Nc1cncc(C(F)(F)F)c1 [Example 125, (3-((5-(pyrimidin-5-yl)pyridin-2-yl)methyl)-1,2,3-oxadiazol-3-ium-5-yl)((5-(trifluoromethyl)pyridin-3-yl)carbamoyl)amide]	–	100 to 1000 nM	100 to 1000 nM
Cc1noc(C)c1-c1cnc(C[n+]2cc([N-]C(=O)Nc3cccc(C(F)(F)F)c3)on2)nc1 [Example 167, (3-((5-(3,5-dimethylisoxazol-4-yl)pyrimidin-2-yl)methyl)-1,2,3-oxadiazol-3-ium-5-yl)((3-(trifluoromethyl)phenyl)carbamoyl)amide]	–	< 100 nM	100 to 1000 nM
Cc1noc(C)c1-c1ccc(C[n+]2cc([N-]C(=O)Nc3cc(F)cc(C(F)(F)F)c3)on2)nc1 [Example 153, (3-((5-(3,5-dimethylisoxazol-4-yl)pyridin-2-yl)methyl)-1,2,3-oxadiazol-3-ium-5-yl)((3-fluoro-5-(trifluoromethyl)phenyl)carbamoyl)amide]	–	< 100 nM	100 to 1000 nM
Cc1noc(C)c1-c1ccc(C[n+]2cc([N-]C(=O)Nc3cnc(C(F)(F)F)s3)on2)nc1 [Example 154, (3-((5-(3,5-dimethylisoxazol-4-yl)pyridin-2-yl)methyl)-1,2,3-oxadiazol-3-ium-5-yl)((2-(trifluoromethyl)thiazol-5-yl)carbamoyl)amide]	–	100 to 1000 nM	100 to 1000 nM
O=C([N-]c1c[n+](Cc2ccc(-c3ccnnc3)cc2)no1)Nc1cccc(C(F)(F)F)c1 [Example 61, (3-(4-(pyridazin-4-yl)benzyl)-1,2,3-oxadiazol-3-ium-5-yl)((3-(trifluoromethyl)phenyl)carbamoyl)amide]	< 100 nM	< 100 nM	–
O=C([N-]c1c[n+](Cc2ccc(-c3cncnc3C(F)(F)F)cn2)no1)Nc1ccnc(C(F)(F)F)c1 [Example 177, ((2-(trifluoromethyl)pyridin-4-yl)carbamoyl)(3-((5-(4-(trifluoromethyl)pyrimidin-5-yl)pyridin-2-yl)methyl)-1,2,3-oxadiazol-3-ium-5-yl)amide]	< 100 nM	100 to 1000 nM	–
O=C([N-]c1c[n+](Cc2ccc(-c3ccncc3F)cn2)no1)Nc1cccc(C(F)(F)F)c1 [Example 164, (3-((3′-fluoro-[3,4′-bipyridin]-6-yl)methyl)-1,2,3-oxadiazol-3-ium-5-yl)((3-(trifluoromethyl)phenyl)carbamoyl)amide]	–	< 100 nM	100 to 1000 nM
Cc1ncnc(C)c1-c1cnc(C[n+]2cc([N-]C(=O)Nc3cccc(C(F)(F)F)c3)on2)nc1 [Example 183, (3-((4′,6′-dimethyl-[5,5′-bipyrimidin]-2-yl)methyl)-1,2,3-oxadiazol-3-ium-5-yl)((3-(trifluoromethyl)phenyl)carbamoyl)amide]	–	< 100 nM	100 to 1000 nM
Cc1noc(C)c1-c1ccc([C@@H](C)[n+]2cc([N-]C(=O)Nc3ccnc(C(F)(F)F)c3)on2)cc1 [Example 189, (R)-(3-(1-(4-(3,5-dimethylisoxazol-4-yl)phenyl)ethyl)-1,2,3-oxadiazol-3-ium-5-yl)((2-(trifluoromethyl)pyridin-4-yl)carbamoyl)amide]	–	100 to 1000 nM	100 to 1000 nM
Cc1noc(C)c1-c1ccc(C[n+]2cc([N-]C(=O)Nc3cncc(C(F)(F)F)c3)on2)nc1 [Example 126, (3-((5-(3,5-dimethylisoxazol-4-yl)pyridin-2-yl)methyl)-1,2,3-oxadiazol-3-ium-5-yl)((5-(trifluoromethyl)pyridin-3-yl)carbamoyl)amide]	< 100 nM	< 100 nM	–
O=C([N-]c1c[n+](Cc2ccc(-c3ccnc(O)c3)cc2)no1)Nc1cccc(C(F)(F)F)c1 [Example 64, (3-(4-(2-hydroxypyridin-4-yl)benzyl)-1,2,3-oxadiazol-3-ium-5-yl)((3-(trifluoromethyl)phenyl)carbamoyl)amide]	< 100 nM	100 to 1000 nM	–
C[C@H](c1ccc(-c2cncnc2)cc1)[n+]1cc([N-]C(=O)Nc2cccc(C(F)(F)F)c2)on1 [Example 72, (R)-(3-(1-(4-(pyrimidin-5-yl)phenyl)ethyl)-1,2,3-oxadiazol-3-ium-5-yl)((3-(trifluoromethyl)phenyl)carbamoyl)amide]	–	100 to 1000 nM	100 to 1000 nM
O=C([N-]c1c[n+](Cc2ccc(-c3cccnc3)cc2)no1)Nc1cccc(C(F)(F)F)c1 [Example 22, (3-(4-(pyridin-3-yl)benzyl)-1,2,3-oxadiazol-3-ium-5-yl)((3-(trifluoromethyl)phenyl)carbamoyl)amide]	–	100 to 1000 nM	100 to 1000 nM
Cc1noc(C)c1-c1ccc(C[n+]2cc([N-]C(=O)Nc3ncc(C(F)(F)F)s3)on2)nc1 [Example 166, (3-((5-(3,5-dimethylisoxazol-4-yl)pyridin-2-yl)methyl)-1,2,3-oxadiazol-3-ium-5-yl)((5-(trifluoromethyl)thiazol-2-yl)carbamoyl)amide]	–	< 100 nM	100 to 1000 nM
Cc1cnncc1-c1ccc(C[n+]2cc([N-]C(=O)Nc3cncc(C(F)(F)F)c3)on2)nc1 [Example 128, (3-((5-(5-methylpyridazin-4-yl)pyridin-2-yl)methyl)-1,2,3-oxadiazol-3-ium-5-yl)((5-(trifluoromethyl)pyridin-3-yl)carbamoyl)amide]	–	1000 to 20000 nM	100 to 1000 nM
COc1ncnc(C)c1-c1ccc(C[n+]2cc([N-]C(=O)Nc3cncc(C(F)(F)F)c3)on2)nc1 [Example 136, (3-((5-(4-methoxy-6-methylpyrimidin-5-yl)pyridin-2-yl)methyl)-1,2,3-oxadiazol-3-ium-5-yl)((5-(trifluoromethyl)pyridin-3-yl)carbamoyl)amide]	–	100 to 1000 nM	100 to 1000 nM
Cc1cnn(C)c1-c1ccc(C[n+]2cc([N-]C(=O)Nc3ccnc(C(F)(F)F)c3)on2)nc1 [Example 175, (3-((5-(1,4-dimethyl-1H-pyrazol-5-yl)pyridin-2-yl)methyl)-1,2,3-oxadiazol-3-ium-5-yl)((2-(trifluoromethyl)pyridin-4-yl)carbamoyl)amide]	< 100 nM	< 100 nM	–
Cc1ncncc1-c1ccc(C[n+]2cc([N-]C(=O)Nc3cccc(C(F)(F)F)c3)on2)cc1 [Example 60, (3-(4-(4-methylpyrimidin-5-yl)benzyl)-1,2,3-oxadiazol-3-ium-5-yl)((3-(trifluoromethyl)phenyl)carbamoyl)amide]	< 100 nM	< 100 nM	–
Cc1cnncc1-c1ccc(C[n+]2cc([N-]C(=O)Nc3cccc(C(F)(F)F)c3)on2)nc1 [Example 129, (3-((5-(5-methylpyridazin-4-yl)pyridin-2-yl)methyl)-1,2,3-oxadiazol-3-ium-5-yl)((3-(trifluoromethyl)phenyl)carbamoyl)amide]	< 100 nM	100 to 1000 nM	–
COc1ncncc1-c1ccc(C[n+]2cc([N-]C(=O)Nc3cccc(C(F)(F)F)c3)on2)cc1 [Example 62, (3-(4-(4-methoxypyrimidin-5-yl)benzyl)-1,2,3-oxadiazol-3-ium-5-yl)((3-(trifluoromethyl)phenyl)carbamoyl)amide]	< 100 nM	100 to 1000 nM	–
O=C([N-]c1c[n+](Cc2ccc(I)cc2)no1)Nc1cccc(C(F)(F)F)c1 [Example 47, (3-(4-iodobenzyl)-1,2,3-oxadiazol-3-ium-5-yl)((3-(trifluoromethyl)phenyl)carbamoyl)amide]	–	100 to 1000 nM	100 to 1000 nM
O=C([N-]c1c[n+]([C@@H]2CCC[C@H]2c2ccccc2)no1)Nc1cccc(C(F)(F)F)c1 [Example 59, (3-((1R,2S)-2-phenylcyclopentyl)-1,2,3-oxadiazol-3-ium-5-yl)((3-(trifluoromethyl)phenyl)carbamoyl)amide]	–	100 to 1000 nM	1000 to 20000 nM
Cc1noc(C)c1-c1ccc(C[n+]2cc([N-]C(=O)Nc3ccc(F)c(C(F)(F)F)c3)on2)nc1 [Example 150, (3-((5-(3,5-dimethylisoxazol-4-yl)pyridin-2-yl)methyl)-1,2,3-oxadiazol-3-ium-5-yl)((4-fluoro-3-(trifluoromethyl)phenyl)carbamoyl)amide]	–	< 100 nM	100 to 1000 nM
Cc1ncnc(C)c1-c1ccc(C[n+]2cc([N-]C(=O)Nc3cccc(C(F)(F)F)c3)on2)nc1 [Example 130, (3-((5-(4,6-dimethylpyrimidin-5-yl)pyridin-2-yl)methyl)-1,2,3-oxadiazol-3-ium-5-yl)((3-(trifluoromethyl)phenyl)carbamoyl)amide]	< 100 nM	< 100 nM	–
